From patent US20150183802A1, “TRICYCLIC SULFONAMIDE DERIVATIVES” (NOVARTIS AG, priority 2013, published 2015)

Target: T1, hNav1.7 channels (Homo sapiens, UniProt Q15858)
T1 construct: host or cells: HEK293
Test: hNav1.7 channel in vitro patch-clamp assay
Type: cell-based
Details: stable HEK293 cell line expressing hNav1.7; for IC50: whole cell patch-clamp (QPatch HTX and/or conventional), room temperature, voltage protocol not given
Method: hNav1.7 Channel In Vitro Patch-Clamp Assay
Cells: Sable HEK293 (human embryonic kidney) cell line expressing hNav1.7 channels was used in the assay. The cell line was obtained from Millipore (Millipore Corporation, MA).
Patch-clamp recordings: The recordings were performed on QPatch HTX (Sophion Bioscience, Denmark) and/or conventional patch-clamp (Axon Multiclamp 700B systems, Molecular Devices, CA) platforms at room temperature, using whole cell patch-clamp techniques. The composition of extracellular solution was (in mM): HEPES 5, NaCl 40, KCl 3, CaCl2 1, MgCl2 1, Choline Chloride 100. Adjust pH to 7.2 with 1N NaOH, osmolarity to 300-310 mOsm with sucrose. The composition of intracellular solution was (in mM): HEPES 10, NaCl 10, Na2ATP 1, MgCl2 2, KF 135, EGTA 10. Adjust pH to 7.2 with 1N NaOH, osmolarity to 290-300 mOsm with sucrose.
For conventional patch-clamp, 35 mm culture dishes containing hNav1.7 cells were placed on the stage of an inverted microscope and continuously perfused with extracellular solution from a perfusion system (Biologic Rapid solution changer, RSC-160, ˜1 ml/min). […] The recordings were controlled by pCLAMP10 software. Test compounds were dissolved in 100% DMSO to make stock solutions for each test concentration, and then diluted into extracellular solution to achieve final concentration for testing. Final DMSO concentration was less than 0.3%. Two voltage protocols were used in hNav1.7 assay: for non-inactivated protocol, the sodium currents were elicited by a 2 ms pulse to −10 mV from a holding potential of −110 mV. For inactivated protocol, the holding potential was set at V1/2. The voltage was firstly stepped to −110 mV for 50 ms, then to −10 mV for 2 ms and then stepped back to holding potential. In both protocols the voltage command was given in every 10 s. Compound effect (% inhibition) was determined by difference in current amplitude before and after the application of test compounds. IC50 values were determined from concentration-response curves that were obtained with Hill fitting.
For QPatch HTX assay, hNav1.7 cells grown to 50%-80% confluence were rinsed with DPBS and dissociated with Tryple (Invitrogen, 12605-010). The dissociated cells were then mixed with extracellular solution. After centrifuge, the cells were resuspended in extracellular solution and used in the QPatch experiment. The whole-cell protocols, voltage protocols and application protocols were established with QPatch Assay Software 3.4 (Sophion Bioscience, Denmark). Only the inactivated protocol was used in the QPatch assay.

T1 sequence (Q15858 whole entry): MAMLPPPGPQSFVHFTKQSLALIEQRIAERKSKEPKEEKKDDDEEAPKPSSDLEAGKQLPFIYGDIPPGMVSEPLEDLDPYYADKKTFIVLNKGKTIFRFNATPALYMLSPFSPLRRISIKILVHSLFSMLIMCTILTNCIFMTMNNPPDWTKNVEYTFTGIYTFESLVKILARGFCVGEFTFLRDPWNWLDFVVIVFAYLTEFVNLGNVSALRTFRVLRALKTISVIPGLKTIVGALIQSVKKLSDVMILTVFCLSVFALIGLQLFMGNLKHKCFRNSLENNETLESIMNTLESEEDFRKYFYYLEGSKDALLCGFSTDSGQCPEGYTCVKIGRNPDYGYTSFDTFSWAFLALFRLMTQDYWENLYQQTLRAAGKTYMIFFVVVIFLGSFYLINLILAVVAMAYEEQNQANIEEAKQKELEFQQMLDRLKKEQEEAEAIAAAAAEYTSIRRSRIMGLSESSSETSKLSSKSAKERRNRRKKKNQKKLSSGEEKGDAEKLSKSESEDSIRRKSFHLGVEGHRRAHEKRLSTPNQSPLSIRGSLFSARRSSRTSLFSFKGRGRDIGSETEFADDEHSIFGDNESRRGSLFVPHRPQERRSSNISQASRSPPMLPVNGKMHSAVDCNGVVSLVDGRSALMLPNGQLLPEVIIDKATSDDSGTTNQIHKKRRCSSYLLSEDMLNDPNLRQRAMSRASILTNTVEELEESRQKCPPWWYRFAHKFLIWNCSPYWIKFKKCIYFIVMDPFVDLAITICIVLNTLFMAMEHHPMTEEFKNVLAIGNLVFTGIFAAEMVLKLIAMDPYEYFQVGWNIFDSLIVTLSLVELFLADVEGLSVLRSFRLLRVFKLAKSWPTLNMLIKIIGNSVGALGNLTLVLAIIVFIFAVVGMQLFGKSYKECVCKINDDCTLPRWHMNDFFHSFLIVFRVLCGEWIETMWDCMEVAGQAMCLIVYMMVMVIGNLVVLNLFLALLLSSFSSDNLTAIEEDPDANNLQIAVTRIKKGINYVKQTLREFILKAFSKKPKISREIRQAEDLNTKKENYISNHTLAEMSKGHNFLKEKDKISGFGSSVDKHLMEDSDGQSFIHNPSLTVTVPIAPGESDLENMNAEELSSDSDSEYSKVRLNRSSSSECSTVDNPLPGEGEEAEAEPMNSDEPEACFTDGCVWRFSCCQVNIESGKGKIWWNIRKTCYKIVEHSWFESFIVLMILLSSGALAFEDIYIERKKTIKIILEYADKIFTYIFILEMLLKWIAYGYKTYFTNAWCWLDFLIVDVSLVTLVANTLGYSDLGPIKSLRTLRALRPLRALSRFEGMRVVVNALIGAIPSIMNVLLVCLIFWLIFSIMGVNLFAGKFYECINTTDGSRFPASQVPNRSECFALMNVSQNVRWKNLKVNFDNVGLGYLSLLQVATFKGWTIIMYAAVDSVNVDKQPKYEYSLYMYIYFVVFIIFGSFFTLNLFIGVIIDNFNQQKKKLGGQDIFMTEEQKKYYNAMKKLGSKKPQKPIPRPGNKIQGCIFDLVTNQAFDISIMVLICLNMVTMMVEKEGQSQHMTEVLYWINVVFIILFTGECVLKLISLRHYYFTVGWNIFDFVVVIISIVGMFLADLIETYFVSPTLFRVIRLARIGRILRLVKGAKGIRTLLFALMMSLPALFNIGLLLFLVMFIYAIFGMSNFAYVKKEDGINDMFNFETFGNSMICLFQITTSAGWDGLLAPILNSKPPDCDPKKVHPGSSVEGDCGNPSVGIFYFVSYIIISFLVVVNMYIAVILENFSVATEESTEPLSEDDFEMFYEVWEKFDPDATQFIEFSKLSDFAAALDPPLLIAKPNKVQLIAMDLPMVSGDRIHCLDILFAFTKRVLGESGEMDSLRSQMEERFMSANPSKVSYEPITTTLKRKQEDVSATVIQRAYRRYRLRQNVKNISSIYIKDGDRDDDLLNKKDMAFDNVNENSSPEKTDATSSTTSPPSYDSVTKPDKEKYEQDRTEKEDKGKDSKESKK

CC(C)COc1ncc(N2C(=O)C3(CC3)c3cc4c(NS(=O)(=O)C(C)C)noc4cc32)cc1Cl [Example 3, N-(7′-(5-chloro-6-isobutoxypyridin-3-yl)-6′-oxo-6′,7′-dihydrospiro[cyclopropane-1,5′-isoxazolo[4,5-f]indol]-3′-yl)propane-2-sulfonamide]
IC50: 100 nM

CC(C)COc1ncc(N2C(=O)C3(CC3)c3cc4c(NS(=O)(=O)c5cccs5)noc4cc32)cc1Cl [Example 7, N-(7′-(5-chloro-6-isobutoxypyridin-3-yl)-6′-oxo-6′,7′-dihydrospiro[cyclopropane-1,5′-isoxazolo[4,5-f]indol]-3′-yl)thiophene-2-sulfonamide]
IC50: 500 nM

CC(C)COc1ncc(N2C(=O)C3(CC3)c3cc4c(NS(=O)(=O)N5CCCC5)noc4cc32)cc1Cl [Example 10, N-(7′-(5-chloro-6-isobutoxypyridin-3-yl)-6′-oxo-6′,7′-dihydrospiro[cyclopropane-1,5′-isoxazolo[4,5-f]indol]-3′-yl)pyrrolidine-1-sulfonamide]
IC50: 500 nM

CS(=O)(=O)Nc1noc2cc3c(cc12)C1(CC1)C(=O)N3c1cnc(OCC2CCOCC2)c(Cl)c1 [Example 12, N-(7′-(5-chloro-6-((tetrahydro-2H-pyran-4-yl)methoxy)pyridin-3-yl)-6′-oxo-6′,7′-dihydrospiro[cyclopropane-1,5′-isoxazolo[4,5-f]indol]-3′-yl)methanesulfonamide]
IC50: 2000 nM

CC1CCC(COc2ncc(N3C(=O)C4(CC4)c4cc5c(NS(=O)(=O)C6CC6)noc5cc43)cc2Cl)CC1 (stereo not shown) [Example 23, N-(7′-(5-chloro-6-((4-methylcyclohexyl)methoxy)pyridin-3-yl)-6′-oxo-6′,7′-dihydrospiro[cyclopropane-1,5′-isoxazolo[4,5-f]indol]-3′-yl)cyclopropanesulfonamide]
IC50: 200 nM

CC(C)COc1ncc(N2C(=O)C3(CC3)Oc3cc4c(NS(=O)(=O)C5CC5)noc4cc32)cc1Cl [Example 62, N-(8′-(5-chloro-6-isobutoxypyridin-3-yl)-7′-oxo-7′,8′-dihydrospiro[cyclopropane-1,6′-isoxazolo[5′,4′:4,5]benzo[1,2-b][1,4]oxazin]-3′-yl)cyclopropanesulfonamide]
IC50: 100 nM

CC(C)COc1c(Cl)cc(N2C(=O)C3(CC3)c3cc4c(NS(C)(=O)=O)noc4cc32)cc1C#N [Example 32, N-(7′-(3-chloro-5-cyano-4-isobutoxyphenyl)-6′-oxo-6′,7′-dihydrospiro[cyclopropane-1,5′-isoxazolo[4,5-f]indol]-3′-yl)methanesulfonamide]
IC50: 900 nM

O=C1N(c2cnc(OC3CC(F)(F)C3)c(Cl)c2)c2cc3onc(NS(=O)(=O)C4CC4)c3cc2C12CC2 [Example 19, N-(7′-(5-chloro-6-(3,3-difluorocyclobutoxyl)pyridin-3-yl)-6′-oxo-6′,7′-dihydrospiro[cyclopropane-1,5′-isoxazolo[4,5-f]indol]-3′-yl)cyclopropanesulfonamide]
IC50: 200 nM

CC(C)COc1ncc(-n2c(C(F)(F)F)nc3cc4c(NS(=O)(=O)C5CC5)noc4cc32)cc1Cl [Example 43, N-(7-(5-chloro-6-isobutoxypyridin-3-yl)-6-(trifluoromethyl)-7H-imidazo[4′,5′:4,5]benzo[1,2-d]isoxazol-3-yl)cyclopropanesulfonamide]
IC50: 100 nM

O=C1N(c2cnc(OCC3CCCC3)c(Cl)c2)c2cc3onc(NS(=O)(=O)C4CC4)c3cc2C12CC2 [Example 27, N-(7′-(5-chloro-6-(cyclopentylmethoxy)pyridin-3-yl)-6′-oxo-6′,7′-dihydrospiro[cyclopropane-1,5′-isoxazolo[4,5-f]indol]-3′-yl)cyclopropanesulfonamide]
IC50: 90 nM

Cc1cn(-c2cnc(OCC(C)C)c(Cl)c2)c2cc3onc(NS(=O)(=O)C4CC4)c3cc12 [Example 42, N-(7-(5-chloro-6-isobutoxypyridin-3-yl)-5-methyl-7H-isoxazolo[4,54]indol-3-yl)cyclopropanesulfonamide]
IC50: 70 nM

CC(C)COc1ncc(N2C(=O)C3(CC3)c3cc4c(NS(=O)(=O)N(C)C)noc4cc32)cc1Cl [Example 9, N-(7′-(5-chloro-6-isobutoxypyridin-3-yl)-6′-oxo-6′,7′-dihydrospiro[cyclopropane-1,5′-isoxazolo[4,5-f]indol]-3′-yl)dimethylamino-1-sulfonamide]
IC50: 1230 nM

CC1(COc2ncc(N3C(=O)C4(CC4)c4cc5c(NS(C)(=O)=O)noc5cc43)cc2Cl)CC1 [Example 15, N-(7′-(5-chloro-6-((1-methylcyclopropyl)methoxy)pyridin-3-yl)-6′-oxo-6′,7′-dihydrospiro[cyclopropane-1,5′-isoxazolo[4,5-f]indol]-3′-yl) methanesulfonamide]
IC50: 70 nM

CC(C)COc1ncc(N2C(=O)C3(CCCC3)c3cc4c(NS(=O)(=O)C5CC5)noc4cc32)cc1Cl [Example 38, N-(7′-(5-chloro-6-isobutoxypyridin-3-yl)-6′-oxo-6′,7′-dihydrospiro[cyclopentane-1,5′-isoxazolo[4,5-f]indol]-3′-yl)cyclopropanesulfonamide]
IC50: 500 nM

CC(C)COc1ncc(-n2cc(C(F)(F)F)c3cc4c(NS(=O)(=O)C5CC5)noc4cc32)cc1Cl [Example 41, N-(7-(5-chloro-6-isobutoxypyridin-3-yl)-5-(trifluoromethyl)-7H-isoxazolo[4,5-f]indol-3-yl)cyclopropanesulfonamide]
IC50: 50 nM

CC(C)COc1ncc(-n2cc(C#N)c3cc4c(NS(=O)(=O)C5CC5)noc4cc32)cc1Cl [Example 48, N-(7-(5-chloro-6-isobutoxypyridin-3-yl)-5-cyano-7H-isoxazolo[4,54]indol-3-yl)cyclopropanesulfonamide]
IC50: 220 nM

O=S(=O)(Nc1noc2cc3c(-c4ccc(Cl)c(Cl)c4)nccc3cc12)C1CC1 [Example 52]
IC50: 800 nM

CC(C)COc1ncc(N2C(=O)C3(CC3)c3cc4c(NS(C)(=O)=O)noc4cc32)cc1Cl [Example 1, N-(7′-(5-chloro-6-isobutoxypyridin-3-yl)-6′-oxo-6′,7′-dihydrospiro[cyclopropane-1,5′-isoxazolo[4,5-f]indol]-3′-yl)methanesulfonamide]
IC50: 150 nM

O=C1N(c2cnc(OC3CCC3)c(Cl)c2)c2cc3onc(NS(=O)(=O)C4CC4)c3cc2C12CC2 [Example 21, N-(7′-(5-chloro-6-cyclobutoxypyridin-3-yl)-6′-oxo-6′,7′-dihydrospiro[cyclopropane-1,5′-isoxazolo[4,5-f]indol]-3′-yl)cyclopropanesulfonamide]
IC50: 150 nM

CC(C)COc1ncc(-c2nn(C)c3cc4c(NS(=O)(=O)C5CC5)noc4cc23)cc1Cl [Example 47, N-(7-(5-chloro-6-isobutoxypyridin-3-yl)-5-methyl-5H-isoxazolo[5,4-f]indazol-3-yl)cyclopropanesulfonamide]
IC50: 400 nM

CC(C)COc1ncc(N2CCOc3cc4c(NS(C)(=O)=O)noc4cc32)cc1Cl [Example 63, N-(8-(5-chloro-6-isobutoxypyridin-3-yl)-7,8-dihydro-6H-isoxazolo[5′,4′:4,5]benzo[1,2-b][1,4]oxazin-3-yl)methanesulfonamide]
IC50: 530 nM

Cc1cc2cc3c(NS(=O)(=O)C4CC4)noc3cc2c(-c2cnc(OCC(C)C)c(Cl)c2)n1 [Example 61, N-(8-(5-chloro-6-isobutoxypyridin-3-yl)-6-methylisoxazolo[4,5-g]isoquinolin-3-yl)cyclopropanesulfonamide]
IC50: 510 nM

CC(C)COc1ncc(N2C(=O)C3(CC3)c3cc4c(NS(=O)(=O)N5CCC5)noc4cc32)cc1Cl [N-(7′-(5-chloro-6-isobutoxypyridin-3-yl)-6′-oxo-6′,7′-dihydrospiro[cyclopropane-1,5′-isoxazolo[4,5-f]indol]-3′-yl)azetidine-1-sulfonamide]
activity in the hNav1.7 patch-clamp assay (in words) (whole cell patch-clamp): did not show any activity

Cc1nn(-c2ccc(Cl)c(Cl)c2)c2cc3onc(NS(=O)(=O)C4CC4)c3cc12 [Example 46, N-(7-(3,4-dichlorophenyl)-5-methyl-7H-isoxazolo[4,5-f]indazol-3-yl)cyclopropanesulfonamide]
IC50: 100 nM

CC(C)COc1ncc(-n2c(=O)n(C)c3cc4c(NS(C)(=O)=O)noc4cc32)cc1Cl [Example 34, N-(7-(5-chloro-6-isobutoxypyridin-3-yl)-5-methyl-6-oxo-6,7-dihydro-5H-imidazo[4′,5′:4,5]benzo[1,2-d]isoxazol-3-yl)methanesulfonamide]
IC50: 100 nM
